In patent publication US5750546A, “2-(2, 3, 5, 6-tetrafluoro-4-pyridyl)-1, 2, 5-thiadiazolidin-3-one 1, 1-dioxides and compositions and method of use thereof” (Sanofi Winthrop, Inc., priority 1994, dated 1998):

Target: T1, human leukocyte elastase (Homo sapiens, UniProt P08246)
T1 sequence (P08246 30-267): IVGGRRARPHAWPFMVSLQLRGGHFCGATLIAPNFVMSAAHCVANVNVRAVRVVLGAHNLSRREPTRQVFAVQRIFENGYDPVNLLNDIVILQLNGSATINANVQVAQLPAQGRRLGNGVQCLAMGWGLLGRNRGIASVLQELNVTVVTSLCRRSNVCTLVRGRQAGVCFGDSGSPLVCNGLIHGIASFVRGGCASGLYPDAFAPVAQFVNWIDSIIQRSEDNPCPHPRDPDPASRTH
Assay: human leukocyte elastase inhibition assay (progress curves, MeOSuc-Ala-Ala-Pro-Val-pNA substrate)
Assay type: biochemical
Details: in vitro, pH 7.8 at 25° C., absorbance 410 nm, read-out: Ki, human leukocyte elastase inhibitory activity
Experimental: The test compound (inhibitor) is dissolved in DMSO in a vial to produce an inhibitor stock solution which has a concentration in the range of 200-1000μM. The inhibitor stock solution is diluted (1:4, 1:16 and 1:64) into assay vials (vials 1, 2 and 3 respectively) containing 2.4 mL of buffer solution (50 mM N-[2-hydroxyethyl] piperazine-N'-[2-ethanesulfonic acid]/NaOH, 500 mM NaCl, pH 7.8 at 25° C.) and DMSO is added so that the total volume in each vial is 3.2 mL. 70 μL, 50 μL, 35 μL and 25 μL of inhibitor from assay vial 1 is placed into the first four wells of a 96-well microtiter plate and each well is made up to 90 μL total volume with the addition of a 25% DMSO/buffer solution. […]
The 96-well microtiter plate is placed into a Microplate Reader #89815A spectrophotometer and 110 μL of the enzyme solution (prepared as follows: a mixture of 20 mL of buffer solution and 20 mg of bovine serum albumen is gently vortexed in a scintillation vial and 5 μL HLE stock solution (1 mg/mL dissolved in deionized water) is added) is added simultaneously to each of the 16 wells. Each of the solutions in the wells is throughly mixed and then the time-dependent absorbance data is collected at an absorbance of 410 nm until the assay is complete. […]
A plot of the absorbance versus time data thus obtained affords progress curves the final slope of which is equal to the final steady-state velocities (VF). […]

Question: How did the Ki turn out when `CCCC1C(=O)N(c2c(F)c(F)nc(F)c2F)S(=O)(=O)N1C` (centres unmarked) [Example 1(g), 2-(2,3,5,6-tetrafluoro-4-pyridyl)-5-methyl-4-propyl-1,2,5-thiadiazolidin-3-one 1,1-dioxide] was run?
Answer: 10 nM

Question: How did the Ki turn out when `CC(C)CCC1C(=O)N(c2c(F)c(F)nc(F)c2F)S(=O)(=O)N1C` (centres unmarked) [2(h), 2-(2,3,5,6-tetrafluoro-4-pyridyl)-5-methyl-4-(3-methylbutyl)-1,2,5-thiadiazolidin-3-one 1,1-dioxide] was run?
Answer: > 100 nM
